The source of these data is PubChem BioAssay (NCI).

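Following 48 hours of exposure in 96-well plates, responses at five concentrations were used to interpolate endpoints linearly. The concentration for 50% growth inhibition is given as GI50. Definition used: TGI = concentration required for complete inhibition of growth.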

Some test systems named below: BT-549 breast; HL-60(TB) leukemia; HT29 colon; KM12 colon; MALME-3M melanoma; OVCAR-5 ovarian; PC-3 prostate; SF-268 CNS; SF-539 CNS; SK-MEL-5 melanoma.
What all share (test): NCI anticancer screen, dose series, 48 h

For `CCN(CC)CCCNCc1cc(-c2ccccc2)nc2cc(Cl)ccc12`, the GI50 in the test on BT-549 breast is 8.65 µM; in the test with HL-60(TB) leukemia, 1.78 µM; in the test on HT29 colon, 2.2 µM; in the test with KM12 colon it was 2.09 µM; in the test on MALME-3M melanoma, 1.63 µM; in the test on OVCAR-5 ovarian it was 7.83 µM. Moreover, the GI50 is 4.37 µM with PC-3 prostate, 3.05 µM with SF-268 CNS, 1.02 µM in the test on SF-539 CNS and 1.57 µM in the test with SK-MEL-5 melanoma. In addition, the TGI in the test on BT-549 breast is 21.6 µM; in the test on HL-60(TB) leukemia, 4.19 µM; in the test on HT29 colon, 5.39 µM; in the test on KM12 colon, 4.82 µM; in the test with MALME-3M melanoma, 3.49 µM; in the test on OVCAR-5 ovarian, 21.7 µM. The TGI is 18.4 µM with PC-3 prostate, 12.9 µM in the test with SF-268 CNS, 2.55 µM with SF-539 CNS and 3.13 µM in the test with SK-MEL-5 melanoma.

For `CC(C)C[C@H](NC(=O)Cn1cccc(CNC(=O)c2ccccc2)c1=O)B(O)O`, the GI50 in the test on BT-549 breast was 0.162 µM; in the test on HL-60(TB) leukemia, 0.653 µM; in the test on HT29 colon it was 0.352 µM; with KM12 colon it was 0.649 µM; in the test on MALME-3M melanoma, 0.16 µM; in the test with OVCAR-5 ovarian, 2.76 µM. Moreover, the GI50 is 3.08 µM in the test on PC-3 prostate, 0.4 µM in the test with SF-268 CNS, 0.133 µM in the test with SF-539 CNS and 0.158 µM in the test with SK-MEL-5 melanoma. The TGI is 1.54 µM in the test with BT-549 breast; greater than 100 µM in the test with HL-60(TB) leukemia; 11.5 µM with HT29 colon; 3 µM with KM12 colon; 1.88 µM with MALME-3M melanoma; 38.9 µM in the test on OVCAR-5 ovarian. The TGI with PC-3 prostate is greater than 59.1 µM; in the test with SF-268 CNS, 2.95 µM; in the test with SF-539 CNS, 0.454 µM; in the test on SK-MEL-5 melanoma it was 0.842 µM.

As to `COc1cc(Cl)c(CC(=O)c2c[nH]c3ccccc23)cc1OC`, the TGI was greater than 100 µM in the test on BT-549 breast; greater than 67.3 µM in the test on HL-60(TB) leukemia; greater than 100 µM in the test with HT29 colon; greater than 100 µM in the test with KM12 colon; greater than 100 µM in the test on MALME-3M melanoma; greater than 100 µM in the test on OVCAR-5 ovarian. Further, the TGI in the test with PC-3 prostate is greater than 100 µM; in the test on SF-268 CNS, greater than 100 µM; in the test with SF-539 CNS, 19.4 µM; with SK-MEL-5 melanoma, greater than 100 µM.

On to `COc1cc(S(=O)(=O)Nc2nc(-c3ccc(N4C(=O)C(C)SC4c4ccccc4O)cc3)cs2)ccc1Cl` (stereo not given), for which the GI50 with BT-549 breast was 32 µM; in the test with HL-60(TB) leukemia it was 38 µM; in the test on HT29 colon, 56.5 µM; in the test on KM12 colon, 51.1 µM; with MALME-3M melanoma, 89.2 µM; with OVCAR-5 ovarian, 49.5 µM. In addition, the GI50 in the test with PC-3 prostate is 30.1 µM; in the test on SF-268 CNS, 41.4 µM; in the test on SF-539 CNS, 32.6 µM; in the test with SK-MEL-5 melanoma, 26 µM. Also, the TGI in the test with BT-549 breast, in the test on HL-60(TB) leukemia, in the test with HT29 colon, in the test with KM12 colon, in the test with MALME-3M melanoma and in the test on OVCAR-5 ovarian was greater than 100 µM throughout. The TGI in the test on PC-3 prostate, with SF-268 CNS, with SF-539 CNS and in the test with SK-MEL-5 melanoma was greater than 100 µM each time.

In the case of `O=c1cc(-c2ccccc2)[nH]c2c1CCCC2`, the GI50 in the test on BT-549 breast is 21.5 µM; with HL-60(TB) leukemia, 1.62 µM; in the test with HT29 colon, 2 µM; in the test with KM12 colon it was 0.723 µM; with MALME-3M melanoma, 3.48 µM; in the test on OVCAR-5 ovarian, 14.8 µM. Further, the GI50 in the test on PC-3 prostate is 3.18 µM; in the test on SF-268 CNS it was 7.72 µM; with SF-539 CNS, 2.92 µM; with SK-MEL-5 melanoma, 0.883 µM. Also, the TGI with BT-549 breast, in the test on HL-60(TB) leukemia, in the test on HT29 colon, with KM12 colon, in the test on MALME-3M melanoma and in the test with OVCAR-5 ovarian was greater than 100 µM in each case. Moreover, the TGI was greater than 100 µM in the test on PC-3 prostate, greater than 100 µM in the test with SF-268 CNS, greater than 100 µM with SF-539 CNS and 45.4 µM in the test on SK-MEL-5 melanoma.

In the case of `O=C1NC(=O)C(c2cccc(Cl)c2)=C1Nc1ccc(Cl)c(C(=O)O)c1`, the GI50 with BT-549 breast, with HL-60(TB) leukemia, with HT29 colon, with KM12 colon, with MALME-3M melanoma and with OVCAR-5 ovarian was greater than 25 µM in each case. For the same molecule, the GI50 in the test with PC-3 prostate, in the test on SF-268 CNS, with SF-539 CNS and in the test on SK-MEL-5 melanoma was greater than 25 µM throughout. Also, the TGI in the test with BT-549 breast, in the test with HL-60(TB) leukemia, with HT29 colon, in the test with KM12 colon, in the test on MALME-3M melanoma and in the test with OVCAR-5 ovarian was greater than 25 µM in each case. Further, the TGI with PC-3 prostate, in the test with SF-268 CNS, in the test on SF-539 CNS and with SK-MEL-5 melanoma was greater than 25 µM each time.

On to `COc1ccc(C2NN=C3c4ccccc4CCC32)cc1` (stereo not given), for which the GI50 was 5.29 µM in the test with BT-549 breast; 1.92 µM with HL-60(TB) leukemia; 2.26 µM with HT29 colon; 3.99 µM in the test with KM12 colon; 5.22 µM in the test on MALME-3M melanoma; 18.4 µM with OVCAR-5 ovarian. The GI50 in the test with PC-3 prostate is 15.8 µM; with SF-268 CNS it was 15.7 µM; in the test with SF-539 CNS it was 6.73 µM; in the test with SK-MEL-5 melanoma, 3.62 µM. In addition, the TGI in the test on BT-549 breast was 95.4 µM; in the test on HL-60(TB) leukemia it was 5.27 µM; in the test on HT29 colon, 12.5 µM; with KM12 colon it was greater than 100 µM; in the test on MALME-3M melanoma, 38.4 µM; in the test on OVCAR-5 ovarian, greater than 100 µM. Further, the TGI in the test with PC-3 prostate is greater than 100 µM; in the test on SF-268 CNS it was greater than 100 µM; in the test with SF-539 CNS it was 28.8 µM; with SK-MEL-5 melanoma it was 17.1 µM.
